Experimental data: patent publication EP3130594B1, “PHOSPHONATES OF ACETYLENIC BETULIN DERIVATIVES WITH ANTICANCER ACTIVITY, METHOD FOR THEIR PRODUCTION AND THEIR APPLICATION” (Slaski Uniwersytet Medyczny w Katowicach, priority 2015, dated 2017)
In brackets after ≈: the same amount, converted by molar mass.

Legend:
Assay in all cases: Cytotoxic activity in vitro, WST1 test
breast cancer T47D = format: cell-based, human; conditions: T47D cells, Neg = no activity in the applied concentration range; for IC50: Homo sapiens, read-out: Cytotoxic activity in vitro as IC50
Procedure: (§1) The evaluation of cytotoxic activity of the compounds described with Formula 2 was carried out against human cancer cells [brain glioma SNB-19, breast cancer T47D, melanoma C32] using WST1 tests (Table 1).

brain glioma SNB-19 = format: cell-based; conditions: Homo sapiens, SNB-19 cells, read-out: Cytotoxic activity in vitro as IC50
Procedure: as §1

melanoma C32 = format: cell-based; conditions: Homo sapiens, C32 cells, read-out: Cytotoxic activity in vitro as IC50
Procedure: as §1

`CC#CC(=O)OC[C@]12CC[C@@H](/C(C)=C/P(=O)(OCC)OCC)[C@@H]1[C@H]1CC[C@@H]3[C@@]4(C)CC[C@H](OC(=O)C#CC)C(C)(C)[C@@H]4CC[C@@]3(C)[C@]1(C)CC2` [3,28-Di(2-butynoyl)-29-diethoxyphosphorylbetulin] gave an IC50 (breast cancer T47D) of 13.9 ± 3.4 µg/mL (≈ 19.6 µM), an IC50 (brain glioma SNB-19) of 7.6 ± 1 µg/mL (≈ 10.7 µM) and an IC50 (melanoma C32) of 4.9 ± 0.3 µg/mL (≈ 6.89 µM).
`CCOP(=O)(/C=C(\C)[C@@H]1CC[C@]2(COC(=O)C#CC3CC3)CC[C@]3(C)[C@H](CC[C@@H]4[C@@]5(C)CC[C@H](OC(=O)C#CC6CC6)C(C)(C)[C@@H]5CC[C@]43C)[C@@H]12)OCC` [3,28-Di(cyclopropylpropynoyl)-29-diethoxyphosphorylbetulin] showed an IC50 (breast cancer T47D) of 79.5 ± 1.9 µg/mL (≈ 104 µM), an IC50 (brain glioma SNB-19) of 40.4 ± 6.8 µg/mL (≈ 52.9 µM) and an IC50 (melanoma C32) of 9.4 ± 0.2 µg/mL (≈ 12.3 µM).
For `CCOP(=O)(/C=C(\C)[C@@H]1CC[C@]2(COC(=O)C#CC3CC3)CC[C@]3(C)[C@H](CC[C@@H]4[C@@]5(C)CC[C@H](O)C(C)(C)[C@@H]5CC[C@]43C)[C@@H]12)OCC` [28-cyclopropylpropynoyl-29-diethoxyphosphorylbetulin], the IC50 (breast cancer T47D) was 8.2 ± 0.6 µg/mL (≈ 12.2 µM), the IC50 (brain glioma SNB-19) was 2.2 ± 0.8 µg/mL (≈ 3.28 µM) and the IC50 (melanoma C32) was 4.7 ± 0.7 µg/mL (≈ 7.01 µM).
With `C#CCOC(=O)OC[C@]12CC[C@@H](/C(C)=C/P(=O)(OCC)OCC)[C@@H]1[C@H]1CC[C@@H]3[C@@]4(C)CC[C@H](O)C(C)(C)[C@@H]4CC[C@@]3(C)[C@]1(C)CC2` [29-Diethoxyphosphoryl-28-propargyloxycarbonylbetulin] the IC50 (breast cancer T47D) was 49.4 ± 6.1 µg/mL (≈ 74.7 µM), the IC50 (brain glioma SNB-19) was 24.5 ± 12.6 µg/mL (≈ 37.1 µM) and the IC50 (melanoma C32) was 5.9 ± 0.3 µg/mL (≈ 8.93 µM).
In the case of `C#CCOC(=O)OC[C@]12CC[C@@H](/C(C)=C/P(=O)(OCC)OCC)[C@@H]1[C@H]1CC[C@@H]3[C@@]4(C)CC[C@H](OC(=O)OCC#C)C(C)(C)[C@@H]4CC[C@@]3(C)[C@]1(C)CC2` [29-diethoxyphosphoryl-3,28-di(propargyloxycarbonyl)betulin], the “Cytotoxic activity in vitro as IC50” value (breast cancer T47D) is reported as “Neg”, the IC50 (brain glioma SNB-19) is reported as 0.5 ± 0.1 µg/mL (≈ 0.673 µM) and the IC50 (melanoma C32) is reported as 51.7 ± 4.8 µg/mL (≈ 69.6 µM).
For `C=C(C)[C@@H]1CC[C@]2(CO)CC[C@]3(C)[C@H](CC[C@@H]4[C@@]5(C)CC[C@H](O)C(C)(C)[C@@H]5CC[C@]43C)[C@@H]12` [Betulin, lup-20(29)-ene-3β,28-diol], the IC50 (breast cancer T47D) was 77.9 ± 4 µg/mL (≈ 176 µM) and the IC50 (brain glioma SNB-19) was 23.5 ± 2 µg/mL (≈ 53.1 µM).
For `C=C(CP(=O)(OCC)OCC)[C@@H]1CC[C@]2(COC(C)=O)CC[C@]3(C)[C@H](CC[C@@H]4[C@@]5(C)CC[C@H](OC(C)=O)C(C)(C)[C@@H]5CC[C@]43C)[C@@H]12` [R = R1 = Et, R2 = AcO, R3 = CH2OAc, 3, 28 - Diacetyl - 30 - diethoxyphosphorylbetulin], the IC50 (breast cancer T47D) was 58 ± 3.4 µg/mL (≈ 87.5 µM) and the IC50 (brain glioma SNB-19) was 51.9 ± 0.8 µg/mL (≈ 78.3 µM).
For `C#CC(=O)OC[C@]12CC[C@@H](/C(C)=C/P(=O)(OCC)OCC)[C@@H]1[C@H]1CC[C@@H]3[C@@]4(C)CC[C@H](O)C(C)(C)[C@@H]4CC[C@@]3(C)[C@]1(C)CC2` [R = R1 = Et, R2 = HO, R3 =CH2C(O)C≡CH, 29-Diethoxyphosphoryl-28-propynoylbetulin], the IC50 (breast cancer T47D) was 0.4 ± 0.1 µg/mL (≈ 0.634 µM) and the IC50 (brain glioma SNB-19) was 0.3 ± 0.1 µg/mL (≈ 0.476 µM).
For `CC#CC(=O)OC[C@]12CC[C@@H](/C(C)=C/P(=O)(OCC)OCC)[C@@H]1[C@H]1CC[C@@H]3[C@@]4(C)CC[C@H](O)C(C)(C)[C@@H]4CC[C@@]3(C)[C@]1(C)CC2` [R = R1 =Et, R2 =HO, R3 =CH2OC(O)C ≡ CCH3, 28-(2-butynoyl)-29-diethoxyphosphorylbetulin], the IC50 (breast cancer T47D) was 9.6 ± 0.6 µg/mL (≈ 14.9 µM), the IC50 (brain glioma SNB-19) was 7.5 ± 0.3 µg/mL (≈ 11.6 µM) and the IC50 (melanoma C32) was 4.9 ± 0.1 µg/mL (≈ 7.6 µM).
Molecule `C#CC(=O)OC[C@]12CC[C@@H](/C(C)=C/P(=O)(OCC)OCC)[C@@H]1[C@H]1CC[C@@H]3[C@@]4(C)CC[C@H](OC(=O)C#C)C(C)(C)[C@@H]4CC[C@@]3(C)[C@]1(C)CC2` [R=R1=Et, R2=HC≡CC(O)O, R3 = CH2C(O)C≡CH, 29-Diethoxyphosphoryl-3,28-dipropynoylbetulin] has an IC50 (breast cancer T47D) of 2.8 ± 0.6 µg/mL (≈ 4.1 µM) and an IC50 (brain glioma SNB-19) of 0.6 ± 0.1 µg/mL (≈ 0.879 µM).
Work on `CCOP(=O)(/C=C(/C)[C@@H]1CC[C@]2(CO)CC[C@]3(C)[C@H](CC[C@@H]4[C@@]5(C)CC[C@H](O)C(C)(C)[C@@H]5CC[C@]43C)[C@@H]12)OCC` [cis R = R1 = Et, R2 =OH, R3 = CH2OH, Z - 29 - Diethoxyphosphorylbetulin] yielded an IC50 (breast cancer T47D) of 0.9 ± 0.1 µg/mL (≈ 1.55 µM) and an IC50 (brain glioma SNB-19) of 4.8 ± 0.1 µg/mL (≈ 8.29 µM).
Work on `CCOP(=O)(/C=C(\C)[C@@H]1CC[C@]2(CO)CC[C@]3(C)[C@H](CC[C@@H]4[C@@]5(C)CC[C@H](O)C(C)(C)[C@@H]5CC[C@]43C)[C@@H]12)OCC` [trans R = R1 =Et, R2= OH, R3 = CH2OH, E-29-Diethoxyphosphorylbetulin] yielded an IC50 (breast cancer T47D) of 6.2 ± 0.5 µg/mL (≈ 10.7 µM) and an IC50 (brain glioma SNB-19) of 5.9 ± 0.4 µg/mL (≈ 10.2 µM).
